Source: patent US20250032484A1, “THERAPEUTIC TARGETS AND AGENTS FOR THE TREATMENT OF POSTTRAUMATIC STRESS DISORDER” (priority 2021, published 2025)

How the values were obtained:
[1] = system: VA patients with PTSD (PTSD symptoms, PTSD Checklist); assay: TreeScan nested case-control study of medications associated with PTSD symptom improvement (PTSD Checklist) in VA records; type: in vivo, human
Description: Study Sample and Data Sources. A nested case-control study was conducted within a previously established retrospective cohort that included all VA users with a clinical diagnosis of PTSD (International Classification of Diseases [ICD]-9:309.81, ICD-10: F43.1x) from Oct. 1, 1999 through Sep. 30, 2019 (Shiner et al. (2021) J Eval Clin Pract.). The data source contains information on services use, clinical diagnoses, filled prescriptions, and patient-reported outcome measures (PROMs) for PTSD using the PTSD Checklist (PCL) for these patients. This study was approved by the Veterans Institutional Review Board of Northern New England.
The goal of the current study was to evaluate any filled medications associated with PTSD symptom improvement, and as such, the analytic sample for this study included only patients with PROMs that were at least 30 days apart. 30 days was selected to allow for medications to be taken for at least one full course (typically 28 days). Patients with PROMs more than 365 days apart were excluded as these are unlikely to provide an accurate assessment of PTSD symptom change between the two time points. For patients who had two overlapping PROM intervals, those closest to 84 days in length were chosen to emulate typical PTSD medication efficacy trials (Watts et al. (2013) J Clin Psychiatry. 74: e541-550). When a patient had two or more overlapping intervals at exactly 84 days, the historically earliest interval was chosen. If patients had multiple non-overlapping intervals, all were included. Patients who met the selection criteria for PTSD in the original cohort and had at least one PROM pair where they started a new medication (defined below) constituted the overall analytic sample for the current study.
PTSD Improvement Cases and No Improvement Controls. In order to maximize the number of patients with available symptomatic measurement, two different versions of a PROM for PTSD were integrated into a single dataset (Shiner et al. (2021) J Eval Clin Pract.). The two PROMs were the PCL versions aligned to the Diagnostic and Statistical Manual of Mental Disorders (DSM), version IV and Version 5 (APA (2000): Diagnostic and Statistical Manual of Mental Disorders. 4th Edition. Text Revision: DSM-IV-TR. Arlington, VA: American Psychiatric Association: APA (2013): Diagnostic and Statistical Manual of Mental Disorders: Fifth Edition (DSM-5). Washington, D.C.: American Psychiatric Association), which will heretofore be called the PCL-IV and the PCL-5 (Blevins et al. (2015) J Trauma Stress. 28:489-498: Weathers et al. (1993) Trauma. Coping. and Adaptation. San Antonio, Texas: International Society for Traumatic Stress Studies, 9th Annual Meeting). […] A validated crosswalk (ICC=0.96) was used to convert all values to PCL-5 scoring (Moshier et al. (Under review): An empirical crosswalk for the PTSD Checklist: Translating DSM-IV to DSM-5). PTSD improvement cases were defined by a clinically meaningful improvement, which was a decrease of 15 points or more between assessment points (Lee et al. (2019) Reliable Change Index and Clinically Significant Margins for the CAPS-5 and PCL-5 among Veterans. Boston, MA: International Society for Traumatic Stress Studies, 35th Annual Meeting). […] Thus, the no PTSD improvement control group was defined as worsening of symptoms or reductions of up to 7 points on the PCL. Improvements between 8 and 14 points were of uncertain clinical significance and were therefore excluded.
Identification and Classification of New Medications. The predictors of interest were initiation of medications for any indication. Candidate agents included those that were started in the interval between PCL pairs and continued for at least a 28-day supply. When patients started multiple medications between a given PCL pair, they contributed information for each of the medications in the tree.

[2] = FDA clinical review NDA 209394; cited from earlier work
[3] = all patients in the overall sample
[4] = case = improved by 15 or more points on PTSD Checklist, all patients in the overall sample
[5] = improvement in PTSD, all patients in the overall sample
[6] = baseline PCL score of 38 or higher and PTSD diagnosis within 30 days
[7] = overall sample without any concurrent evidence-based treatment
[8] = baseline PCL 38 or higher, PTSD diagnosis within 30 days, without any concurrent evidence-based treatment

| Substance | EXP = Expected Cases [1, 3] | OBS = Observed Cases [1, 4] | O:E = Observed Cases over Expected Cases [1, 5] | association with PTSD symptom improvement, in words (statistical alert at P<0.1) ([1]; overall sample) | EXP = Expected Cases [1, 6] | O:E = Observed Cases over Expected Cases [1, 6] | OBS = Observed Cases [1, 6] | EXP = Expected Cases [1, 7] | O:E = Observed Cases over Expected Cases [1, 7] | OBS = Observed Cases [1, 7] | BBB permeability [2] | EXP = Expected Cases [1, 8] | O:E = Observed Cases over Expected Cases [1, 8] | OBS = Observed Cases [1, 8] | O:E = Observed Cases over Expected Cases ([1]; improvement in PTSD, all patients in the overall sample, listed as glecaprevir) |
| --- | --- | --- | --- | --- | --- | --- | --- | --- | --- | --- | --- | --- | --- | --- | --- |
| Fluoxetine | 1571 | 1716 | 1.09 | similarly small associations |  |  |  |  |  |  |  |  |  |  |  |
| Naloxone | 312 | 426 | 1.37 |  | 279 | 1.35 | 376 |  |  |  |  |  |  |  |  |
| Naltrexone | 504 | 605 | 1.20 |  | 444 | 1.21 | 536 |  |  |  |  |  |  |  |  |
| Quetiapine |  |  |  |  |  |  |  | 371 | 1.24 | 460 |  |  |  |  |  |
| Sertraline | 4025 | 4659 |  |  | 3434 |  | 3909 |  |  |  |  |  |  |  |  |
| glecaprevir | 16 | 33 | 2.09 |  | 14 | 2.21 | 30 | 5 | 3.09 | 14 | poor BBB permeability | 4 | 3.52 | 14 | 2.09 |
